The results in this text go back to patent US11739098B2 (BRISTOL-MYERS SQUIBB COMPANY, priority 2017, dated 2023).

As a reminder, the IC50 is the concentration that inhibits the measured activity by half. Higher therefore signals lower potency.

Common to all, as to type: cell-based
One test has as its target T1, human TLR8 (Homo sapiens, UniProt Q9NR97).
T1 construct: host or cells: HEK-Blue cells (HEK293-derived reporter line)
T1 sequence (Q9NR97 27-1041): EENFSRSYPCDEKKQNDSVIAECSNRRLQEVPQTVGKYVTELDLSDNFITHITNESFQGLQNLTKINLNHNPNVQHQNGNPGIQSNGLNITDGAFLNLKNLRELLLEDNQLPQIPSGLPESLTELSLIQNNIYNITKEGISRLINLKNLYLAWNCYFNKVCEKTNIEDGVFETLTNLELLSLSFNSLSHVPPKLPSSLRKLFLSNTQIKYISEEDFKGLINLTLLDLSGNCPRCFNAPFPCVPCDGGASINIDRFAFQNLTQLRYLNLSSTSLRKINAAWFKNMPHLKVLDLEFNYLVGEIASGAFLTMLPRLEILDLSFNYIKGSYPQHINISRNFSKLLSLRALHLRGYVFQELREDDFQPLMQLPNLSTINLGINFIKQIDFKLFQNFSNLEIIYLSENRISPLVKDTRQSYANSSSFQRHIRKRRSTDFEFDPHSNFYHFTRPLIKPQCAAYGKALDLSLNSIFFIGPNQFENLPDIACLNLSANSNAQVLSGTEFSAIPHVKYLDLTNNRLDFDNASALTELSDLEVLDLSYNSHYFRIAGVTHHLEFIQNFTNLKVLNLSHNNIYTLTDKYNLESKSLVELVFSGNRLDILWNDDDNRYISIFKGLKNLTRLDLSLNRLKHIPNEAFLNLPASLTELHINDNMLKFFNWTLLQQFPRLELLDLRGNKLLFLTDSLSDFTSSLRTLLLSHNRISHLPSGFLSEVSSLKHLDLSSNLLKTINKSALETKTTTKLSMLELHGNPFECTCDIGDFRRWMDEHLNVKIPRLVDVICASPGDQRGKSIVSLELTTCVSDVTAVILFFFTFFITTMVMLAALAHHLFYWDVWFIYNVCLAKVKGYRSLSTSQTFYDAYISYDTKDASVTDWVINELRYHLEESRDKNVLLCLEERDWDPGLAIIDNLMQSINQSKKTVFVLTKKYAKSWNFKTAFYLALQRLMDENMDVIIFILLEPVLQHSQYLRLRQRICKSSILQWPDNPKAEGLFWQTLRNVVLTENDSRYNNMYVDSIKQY
As to the kind of experiment: TLR8 inhibition reporter assay (HEK-Blue cells, SEAP reporter, R848 stimulation). The following applies: HEK-Blue cells overexpressing human TLR8, SEAP reporter, R848 15.9 μM. An outline of the steps:
(§1)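 HEK-Blue cells overexpressing the receptor, with NF-κB/AP-1-driven SEAP, were pre-treated 30 min at room temperature with compound (0.05 nM–50 μM), then stimulated with gardiquimod 7.5 μM (TLR7), R848 15.9 μM (TLR8) or ODN2006 5 nM (TLR9). SEAP was read after 22 h at 37 °C as percent inhibition.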
Background: Reporter assays use an easily measured gene product as a stand-in for the process of interest.

In a further test the target is T2, human TLR7 (Homo sapiens, UniProt Q9NYK1).
T2 construct: host or cells: HEK-Blue cells (HEK293-derived reporter line)
T2 sequence (Q9NYK1 27-1049): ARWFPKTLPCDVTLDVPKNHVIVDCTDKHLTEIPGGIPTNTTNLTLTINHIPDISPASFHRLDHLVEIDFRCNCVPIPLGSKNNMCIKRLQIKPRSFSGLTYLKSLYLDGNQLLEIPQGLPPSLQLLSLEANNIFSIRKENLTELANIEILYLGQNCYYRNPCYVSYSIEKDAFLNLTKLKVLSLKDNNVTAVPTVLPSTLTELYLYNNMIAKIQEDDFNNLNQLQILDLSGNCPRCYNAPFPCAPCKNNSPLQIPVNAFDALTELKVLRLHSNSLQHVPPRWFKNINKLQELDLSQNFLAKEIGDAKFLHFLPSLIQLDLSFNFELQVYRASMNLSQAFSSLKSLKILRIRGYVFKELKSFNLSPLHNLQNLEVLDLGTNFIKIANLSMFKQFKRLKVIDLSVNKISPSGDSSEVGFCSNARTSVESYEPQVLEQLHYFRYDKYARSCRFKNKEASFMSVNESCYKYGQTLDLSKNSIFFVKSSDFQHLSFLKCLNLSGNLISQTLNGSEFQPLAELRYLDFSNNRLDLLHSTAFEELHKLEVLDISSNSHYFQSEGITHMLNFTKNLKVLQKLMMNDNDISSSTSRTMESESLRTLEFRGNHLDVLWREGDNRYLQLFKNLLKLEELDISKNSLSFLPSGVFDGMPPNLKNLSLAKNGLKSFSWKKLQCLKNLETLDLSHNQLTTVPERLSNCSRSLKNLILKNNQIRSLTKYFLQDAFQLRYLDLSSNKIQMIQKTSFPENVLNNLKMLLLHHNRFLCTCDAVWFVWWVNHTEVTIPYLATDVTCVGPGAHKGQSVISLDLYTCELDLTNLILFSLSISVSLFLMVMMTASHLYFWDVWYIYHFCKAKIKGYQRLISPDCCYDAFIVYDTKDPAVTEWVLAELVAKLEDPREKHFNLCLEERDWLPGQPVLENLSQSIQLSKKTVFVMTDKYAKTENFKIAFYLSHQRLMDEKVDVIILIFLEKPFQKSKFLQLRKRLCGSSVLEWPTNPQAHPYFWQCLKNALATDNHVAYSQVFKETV
Kind of test: TLR7 inhibition reporter assay (HEK-Blue cells, SEAP reporter, gardiquimod stimulation). The settings on record: HEK-Blue cells overexpressing human TLR7, SEAP reporter, gardiquimod 7.5 μM. Put shortly:
as §1

The next test concerns the target T3, human TLR9 (Homo sapiens, UniProt Q9NR96).
T3 construct: host or cells: HEK-Blue cells (HEK293-derived reporter line)
T3 sequence (Q9NR96 26-1032): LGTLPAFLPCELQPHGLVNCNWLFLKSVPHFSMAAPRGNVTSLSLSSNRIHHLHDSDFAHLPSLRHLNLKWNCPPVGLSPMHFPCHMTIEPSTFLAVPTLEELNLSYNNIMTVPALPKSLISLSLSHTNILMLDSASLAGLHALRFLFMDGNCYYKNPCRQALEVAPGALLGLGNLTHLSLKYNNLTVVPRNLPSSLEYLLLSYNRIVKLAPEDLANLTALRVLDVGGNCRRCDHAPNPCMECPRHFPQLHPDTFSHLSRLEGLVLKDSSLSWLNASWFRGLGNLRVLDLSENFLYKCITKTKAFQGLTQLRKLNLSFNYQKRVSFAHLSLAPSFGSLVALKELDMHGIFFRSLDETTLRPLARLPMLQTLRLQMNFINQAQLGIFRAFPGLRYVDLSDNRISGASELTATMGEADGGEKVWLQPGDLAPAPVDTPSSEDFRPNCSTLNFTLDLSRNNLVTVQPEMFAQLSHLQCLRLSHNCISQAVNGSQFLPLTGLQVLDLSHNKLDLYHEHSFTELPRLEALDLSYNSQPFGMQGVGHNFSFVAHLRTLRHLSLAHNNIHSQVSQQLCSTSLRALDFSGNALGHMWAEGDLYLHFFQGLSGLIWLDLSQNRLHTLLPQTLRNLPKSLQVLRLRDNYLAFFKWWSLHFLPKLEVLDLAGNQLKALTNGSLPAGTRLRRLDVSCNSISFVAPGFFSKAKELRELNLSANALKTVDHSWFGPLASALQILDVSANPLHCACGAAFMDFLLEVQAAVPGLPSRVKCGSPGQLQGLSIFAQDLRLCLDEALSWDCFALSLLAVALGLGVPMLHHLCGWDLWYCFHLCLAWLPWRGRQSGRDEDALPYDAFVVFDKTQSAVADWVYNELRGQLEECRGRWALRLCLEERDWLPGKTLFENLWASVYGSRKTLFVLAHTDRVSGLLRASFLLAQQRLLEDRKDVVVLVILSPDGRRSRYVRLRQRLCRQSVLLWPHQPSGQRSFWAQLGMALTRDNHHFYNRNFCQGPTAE
Kind of test: TLR9 inhibition reporter assay (HEK-Blue cells, SEAP reporter, ODN2006 stimulation). The following applies: HEK-Blue cells overexpressing human TLR9, SEAP reporter, ODN2006 5 nM. An outline of the steps:
as §1

Counter-ions that a name gives are not always drawn.

Regarding `CCOc1cc(-c2[nH]c3ccc(C4CCN(C(=O)CN(C)C)CC4)cc3c2C(C)C)cc2nc(C)nn12` [Example 497, 2-(dimethylamino)-1-(4-(2-(5-ethoxy-2-methyl-[1,2,4]triazolo[1,5-a]pyridin-7-yl)-3-isopropyl-1H-indol-5-yl)piperidin-1-yl)ethan-1-one], the IC50 against human TLR8 was under 0.1 µM; against human TLR7, under 0.1 µM; on human TLR9, 1 to 50 µM.

As for `Cc1cc(-c2[nH]c3ccc(C4CCN(CCCC(F)(F)F)CC4)cc3c2C(C)C)cn2nnnc12` [Example 963, 6-(3-isopropyl-5-(1-(4,4,4-trifluorobutyl)piperidin-4-yl)-1H-indol-2-yl)-8-methyltetrazolo[1,5-a]pyridine], the values for the IC50 on human TLR8, against human TLR7 and against human TLR9 were under 0.1 µM, under 0.1 µM and 1 to 50 µM, respectively.

On to `Cc1cc(-c2[nH]c3ccc(C4CCN(C(=O)CN(C)C)CC4)cc3c2C(C)C)cc2ncnn12` [Example 536, 2-(dimethylamino)-1-(4-(3-isopropyl-2-(5-methyl-[1,2,4]triazolo[1,5-a]pyridin-7-yl)-1H-indol-5-yl)piperidin-1-yl)ethan-1-one], for which the figures for the IC50 on human TLR8, against human TLR7 and against human TLR9 were under 0.1 µM, under 0.1 µM and 1 to 50 µM, respectively.

In the case of `CNCCN1CCC(c2ccc3[nH]c(-c4ccnc5[nH]ncc45)c(C(C)C)c3c2)CC1` [Example 650, 2-(4-(3-isopropyl-2-(1H-pyrazolo[3,4-b]pyridin-4-yl)-1H-indol-5-yl)piperidin-1-yl)-N-methylethanamine dihydrochloride], the IC50 is under 0.1 µM against human TLR8, under 0.1 µM on human TLR7 and 0.1 to 1 µM against human TLR9.

`CC(C)c1c(-c2ccc3[nH]nc(N)c3c2)[nH]c2ccc(C3CCNCC3)cc12` [Example 93, 5-(3-isopropyl-5-(piperidin-4-yl)-1H-indol-2-yl)-1H-indazol-3-amine]: the IC50 was under 0.1 µM against human TLR8, under 0.1 µM at human TLR7 and 0.1 to 1 µM at human TLR9.

Regarding `Cc1c(-c2ccnc3cn[nH]c23)[nH]c2ccc(C3CCNCC3)cc12` [Example 55, 7-(3-methyl-5-(piperidin-4-yl)-1H-indol-2-yl)-1H-pyrazolo [4,3-b]pyridine], the concentration for half-maximal inhibition (IC50) on human TLR8 was 1 to 50 µM; at human TLR7 it was 0.1 to 1 µM; on human TLR9, 1 to 50 µM.

Regarding `CC(C)c1c(-c2ccn3nccc3c2)[nH]c2ccc(C3CCN(C(=O)CN(C)C)CC3)cc12` [Example 542, 2-(dimethylamino)-1-(4-(3-isopropyl-2-(pyrazolo[1,5-a]pyridin-5-yl)-1H-indol-5-yl)piperidin-1-yl)ethan-1-one], the IC50 against human TLR8 was 0.1 to 1 µM; at human TLR7, under 0.1 µM; against human TLR9, 1 to 50 µM.

`CC(C)c1c(-c2ccnc3[nH]ncc23)[nH]c2ccc(C3CCN(Cc4ccc(OCCCN(C)C)cc4)CC3)cc12` [Example 965, 3-(4-((4-(3-isopropyl-2-(1H-pyrazolo[3,4-b]pyridin-4-yl)-1H-indol-5-yl)piperidin-1-yl)methyl)phenoxy)-N,N-dimethylpropan-1-amine]: the IC50 against human TLR8 was under 0.1 µM; against human TLR7, under 0.1 µM; on human TLR9 it was 0.1 to 1 µM.

With `CC(C)c1c(-c2ccc3nnnn3c2)[nH]c2ccc(C3CCNCC3)cc12` [Example 80, 6-(3-isopropyl-5-(piperidin-4-yl)-1H-indol-2-yl)tetrazolo[1,5-a]pyridine], the IC50 was 0.1 to 1 µM at human TLR8, under 0.1 µM against human TLR7 and 1 to 50 µM on human TLR9.

Regarding `CCc1c(-c2cccc3[nH]ncc23)[nH]c2ccc(C3CCNCC3)cc12` [Example 182, 4-(3-ethyl-5-(piperidin-4-yl)-1H-indol-2-yl)-1H-indazole], the IC50 against human TLR8, at human TLR7 and against human TLR9 was 1 to 50 µM throughout.

For `CC(C)c1c(-c2cc(C(F)(F)F)c3nccn3c2)[nH]c2ccc(C3CCN(C(=O)CN(C)C)CC3)cc12` [Example 507, 2-(dimethylamino)-1-(4-(3-isopropyl-2-(8-(trifluoromethyl)imidazo[1,2-a]pyridin-6-yl)-1H-indol-5-yl)piperidin-1-yl)ethan-1-one], the IC50 at human TLR8 is under 0.1 µM; at human TLR7 it was under 0.1 µM; on human TLR9 it was 0.1 to 1 µM.

Regarding `CC(C)c1c(-c2ccnc3c2CC(=O)N3)[nH]c2ccc(C3CCNCC3)cc12` [Example 69, 4-(3-isopropyl-5-(piperidin-4-yl)-1H-indol-2-yl)-1,3-dihydro-2H-pyrrolo[2,3-b]pyridin-2-one], the IC50 was under 0.1 µM against human TLR8, 0.1 to 1 µM on human TLR7 and 0.1 to 1 µM against human TLR9.

In the case of `CCc1c(-c2ccnc3[nH]ncc23)[nH]c2ccc(C3CCNCC3)c(C)c12` [Example 254, 4-(3-ethyl-4-methyl-5-(piperidin-4-yl)-1H-indol-2-yl)-1H-pyrazolo[3,4-b]pyridine], the IC50 on human TLR8 is 1 to 50 µM; on human TLR7, 1 to 50 µM; against human TLR9, over 50 µM.
